Experimental data reported in patent US7855228B2, “Antibiotics targeting MreB” (The Board of Trustees of the Leland Stamford Junior …, priority 2005, dated 2010).
≈ marks a conversion by molar mass, not a printed value. Where two headings read alike, the source gives them in different places.

Tests used:
[1] = test system: S. aureus subsp. aureus NBRC15035; assay: Determination of minimum inhibitory concentration (MIC); format: cell-based, Staphylococcus aureus; details: Staphylococcus aureus, NBRC15035, Example 2; methods as in Example 1; read-out: MIC S. aureus
Protocol: (§1) Determination of minimum inhibitory concentration (MIC). MICs were also determined on Mueller Hinton agar plates (0.2% beef extract, 1.75% acid digest of casein, 0.15% soluble starch, 1.5% agar, pH 7.3).
(§2) Determination of MIC Minimal inhibitory concentrations (MICs) were determined using a standard 2-fold serial dilution format on L agar plates. Ten microliters of stationary culture diluted in 0.85% NaCl to 10^6 cells/ml were spotted on per plate. […] MICs were also determined on Mueller Hinton agar plates (0.2% beef extract, 1.75% acid digest of casein, 0.15% soluble starch, 1.5% agar, pH 7.3).

[2] = test system: E. coli K-12 strains (ponB, mreB alleles); assay: MICs of mecillinam and A22 for E. coli K-12 strains; format: cell-based; details: Escherichia coli
Protocol: as §2

[3] = test system: E. coli MG1655; assay: Microscopic observation of cell shape; format: cell-based; details: Example 2; methods as in Example 1
Protocol: Microscopic observation. E. coli K-12 strain MG1655 (F^− λ^−) was grown in Lennox broth containing 1% Polypepton, 0.5% yeast extract, 0.5% NaCl, and 0.1% glucose (pH 7.2). Cells spread on a slide glass were treated with methanol for 5 min and covered with poly-L-lysine. The fixed cells were observed by the differential interference contrast system through an Axioskop 2 microscope (Carl Zeiss Co., Ltd., Oberkochen, Germany). To observe the anucleate cells, cells were stained with a 4′,6-diamidino-2-phenylindole (DAPI) solution (5 μg/ml in saline) and then observed by the fluorescence phase-contrast combined method.
The effect of each compound on E. coli cell morphology was next examined.

[4] = test system: P. putida NBRC14164; assay: Determination of minimum inhibitory concentration (MIC); format: cell-based, Pseudomonas putida; details: Pseudomonas putida, NBRC14164, Example 2; methods as in Example 1; read-out: MIC P. putida
Protocol: as §1, §2

[5] = test system: B. subtilis 168; assay: as above; format: cell-based, Bacillus subtilis; details: Bacillus subtilis, 168, Example 2; methods as in Example 1; read-out: MIC B. subtilis
Protocol: as §1, §2

[6] = test system: E. coli MG1655; assay: as above; format: cell-based; details: Escherichia coli, MG1655, Example 2; methods as in Example 1; read-out: MIC E. coli
Protocol: as §1, §2

[7] = test system: E. coli JA221, JST975; assay: Cell shapes of A22-resistant mutant JA221 and parent JST975; format: cell-based; details: mecillinam treatment (1 μg/ml, 2 h, 37° C.)
Protocol: FIG. 9. Effects of A22 and mecillinam on cell shapes of the A22-resistant mutant JA221. Exponentially growing cells of the A22-resistant mutant strain JA221 and the parent strain JST975 were treated with 1 μg/ml mecillinam or 10 μg/ml A22 for 2 h at 37° C. Differential interference contrast microphotographs are shown.
After prolonged (9 days) incubation of the JST975 assay plates, several isolated colonies that grew up within the clear growth inhibitory zones were purified on L plates and their A22-sensitivity was examined.

[8] = test system: S. typhimurium NBRC13245; assay: Determination of minimum inhibitory concentration (MIC); format: cell-based, Salmonella typhimurium; details: Salmonella enterica, Example 2; methods as in Example 1; read-out: MIC S. typhimurium
Protocol: as §1, §2

[9] = test system: HoIB-GFP; assay: HoIB-GFP (replisome) localization; format: cell-based, Caulobacter crescentus; details: 1 hr treatment
Protocol: To assess the ability of these cells to assemble a replisome at the replication origins, A22 was administered to cells expressing a fusion of GFP to the HoIB subunit of DNA polymerase.

[10] = test system: Caulobacter DNA replication; assay: Analysis of DNA replication (32P-labeled dGTP incorporation, DNA-content FACS); format: cell-based, Caulobacter crescentus; details: 10 μg/ml A22 or 5 mg/ml HU
From the text: We first examined the incorporation of radiolabeled dGTP into DNA, which linearly correlates with the rate of DNA replication. […] To assess the effect of A22 on DNA replication during the cell cycle, the radiolabeled nucleotide incorporation assay was repeated using synchronized cultures at different points in the cell cycle. Untreated cells display a dramatic rise in radioactivity levels characteristic of DNA replication initiation at the swarmer-to-stalked cell transition. This rise in radioactivity levels was also observed in A22-treated cells (FIG. 6A).
Finally, we examined the DNA content of A22-treated cells by FACS.
Analysis of DNA Replication. DNA replication was assessed by incorporation of 32P-labeled dGTP) or chromomycin-stained DNA-content FACS analysis as described previously.

SMILES	MIC [1]	MIC ([2]; read-out: MICs, strain JA221 (ponB −, mreB221))	MIC ([2]; read-out: MICs, strain JE1011 (ponB +, mreB +))	MIC ([2]; read-out: MICs, strain JM109/pMW218 (ponB +, mreB +/−))	MIC ([2]; read-out: MICs, strain JM109/pMreB1 (ponB +, mreB +/+))	MIC ([2]; read-out: MICs, strain JM109/pMreB221 (ponB +, mreB +/mreB221))	MIC ([2]; read-out: MICs, strain JST975 (ponB −, mreB +))	MIC ([2]; read-out: MICs, strain JSTA220 (ponB −, mreB +))	MIC ([2]; read-out: MICs, strain JSTA221 (ponB −, mreB221))	MIC ([2]; read-out: MICs, strain WA220 (ponB +, mreB +))	MIC ([2]; read-out: MICs, strain WA221 (ponB +, mreB221))	Shape [3]	MIC [4]	MIC [5]	MIC [6]	Cell shape of resistant mutant JA221 [7]	MIC [8]	HoIB-GFP localization [9]	Incorporation of radiolabeled dGTP, synchronized cultures (replication initiation) [10]
CC1(C)S[C@@H]2[C@H](/N=C/N3CCCCCC3)C(=O)N2[C@H]1C(=O)O [mecillinam, reference compound]	50 µg/mL (≈ 154 µM)	0.125 µg/mL (≈ 0.384 µM)	0.25 µg/mL (≈ 0.768 µM)	0.125 µg/mL (≈ 0.384 µM)	0.125 µg/mL (≈ 0.384 µM)	0.125 µg/mL (≈ 0.384 µM)	0.125 µg/mL (≈ 0.384 µM)	0.125 µg/mL (≈ 0.384 µM)	0.125 µg/mL (≈ 0.384 µM)	0.25 µg/mL (≈ 0.768 µM)	0.25 µg/mL (≈ 0.768 µM)	Sphere	> 100 µg/mL	12.5 µg/mL (≈ 38.4 µM)	0.0977 µg/mL (≈ 0.3 µM)	formed spherical cells	0.0977 µg/mL (≈ 0.3 µM)		
NC(=O)NO [HU, hydroxyl-urea, reference compound]																		rapid delocalization of HoIB-GFP	no such increase in radioactivity levels
